Assay [1] deals with 621-102 (TSC2-deficient). Kind of assay: relative viability vs DMSO (fraction); higher = less cytotoxic. As to conditions: serum: 0.1% FBS, 72 h.
In the next assay the test system is UMB1949 (TSC2-deficient). The description is as above. As to conditions: serum: 0.1% FBS, 72 h.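 Further: renal angiomyolipoma cell lines screened in 384-well plates, viability normalized per plate to DMSO-treated cells, each plate carrying 50 nM rapamycin and 1 µM staurosporine controls.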
The subject of assay [2] is 621-102 (TSC2-deficient). Kind of assay: relative viability vs DMSO; higher = less cytotoxic. The conditions noted are these: serum: 10% FBS, 72 h.
In a further assay the test system is 621-103 (TSC2-rescued). Described as above. As to conditions: serum: 10% FBS, 72 h.

We go through six compounds from the supplement of paper PMC8960247.

Where a name gives a salt, the structure may show the parent alone. ± gives the standard error.

Turning to `CC1=NN(c2ccc(C)c(C)c2)C(=O)/C1=N\Nc1cccc(-c2cccc(C(=O)O)c2)c1O` [Eltrombopag], the relative viability with 621-102 (TSC2-deficient) [1] (0.0128 nM) was determined as 1.19; in the assay on 621-102 (TSC2-deficient) [1] (0.064 nM) it was 0.961; with 621-102 (TSC2-deficient) [1] (0.32 nM), 0.994; in the assay on 621-102 (TSC2-deficient) [1] (1.6 nM), 0.991; in the assay on 621-102 (TSC2-deficient) [1] (8 nM) it was 0.875; in the assay on 621-102 (TSC2-deficient) [1] (40 nM), 0.926. Besides, the relative viability in the assay with 621-102 (TSC2-deficient) [1] (200 nM) came out at 1.43; in the assay with 621-102 (TSC2-deficient) [1] (1000 nM), 0.074; with 621-102 (TSC2-deficient) [1] (5000 nM) it was 0.0453; in the assay on UMB1949 (TSC2-deficient) (0.0128 nM), 1.08; in the assay with UMB1949 (TSC2-deficient) (0.064 nM), 0.963; in the assay on UMB1949 (TSC2-deficient) (0.32 nM), 1. For the same compound, the relative viability in the assay on UMB1949 (TSC2-deficient) (1.6 nM) worked out at 1.05; with UMB1949 (TSC2-deficient) (8 nM), 1.09; in the assay on UMB1949 (TSC2-deficient) (40 nM), 1.03; in the assay on UMB1949 (TSC2-deficient) (200 nM) it was 0.473; in the assay on UMB1949 (TSC2-deficient) (1000 nM), 0.00551; in the assay with UMB1949 (TSC2-deficient) (5000 nM), 0.00668.

In the case of `CO[C@H]1C[C@@H]2CC[C@@H](C)[C@@](O)(O2)C(=O)C(=O)N2CCCC[C@H]2C(=O)O[C@H]([C@H](C)C[C@@H]2CC[C@@H](OCCO)[C@H](OC)C2)CC(=O)[C@H](C)/C=C(\C)[C@@H](O)[C@@H](OC)C(=O)[C@H](C)C[C@H](C)/C=C/C=C/C=C/1C` [Everolimus(RAD001)], the relative viability in the assay on 621-102 (TSC2-deficient) [1] (0.0128 nM) stood at 0.753; in the assay on 621-102 (TSC2-deficient) [1] (0.064 nM), 0.734; with 621-102 (TSC2-deficient) [1] (0.32 nM), 0.706; in the assay on 621-102 (TSC2-deficient) [1] (1.6 nM), 0.696; in the assay on 621-102 (TSC2-deficient) [1] (8 nM), 0.681; in the assay with 621-102 (TSC2-deficient) [1] (40 nM) it was 0.543. The relative viability in the assay on 621-102 (TSC2-deficient) [1] (200 nM) was found to be 0.391; in the assay on 621-102 (TSC2-deficient) [1] (1000 nM), 0.325; with 621-102 (TSC2-deficient) [1] (5000 nM), 0.276; in the assay with UMB1949 (TSC2-deficient) (0.0128 nM) it was 1; with UMB1949 (TSC2-deficient) (0.064 nM), 0.899; with UMB1949 (TSC2-deficient) (0.32 nM) it was 0.985. Also, the relative viability in the assay with UMB1949 (TSC2-deficient) (1.6 nM) turned out to be 0.9; with UMB1949 (TSC2-deficient) (8 nM) it was 0.936; in the assay on UMB1949 (TSC2-deficient) (40 nM) it was 0.847; in the assay on UMB1949 (TSC2-deficient) (200 nM), 0.781; with UMB1949 (TSC2-deficient) (1000 nM) it was 0.401; in the assay with UMB1949 (TSC2-deficient) (5000 nM), 0.461.

`COC(=O)Nc1nc2cc(Sc3ccccc3)ccc2[nH]1` [Fenbendazole]: the relative viability is 1.37 in the assay on 621-102 (TSC2-deficient) [1] (0.0128 nM); 1.35 in the assay on 621-102 (TSC2-deficient) [1] (0.064 nM); 1.68 with 621-102 (TSC2-deficient) [1] (0.32 nM); 1.39 with 621-102 (TSC2-deficient) [1] (1.6 nM); 0.898 with 621-102 (TSC2-deficient) [1] (8 nM); 0.314 in the assay on 621-102 (TSC2-deficient) [1] (40 nM). For the same compound, the relative viability came out at 0.0634 in the assay with 621-102 (TSC2-deficient) [1] (200 nM); 0.0446 in the assay on 621-102 (TSC2-deficient) [1] (1000 nM); 0.0203 in the assay with 621-102 (TSC2-deficient) [1] (5000 nM); 1.05 in the assay on UMB1949 (TSC2-deficient) (0.0128 nM); 0.807 with UMB1949 (TSC2-deficient) (0.064 nM); 1.02 with UMB1949 (TSC2-deficient) (0.32 nM). The relative viability is 0.969 in the assay on UMB1949 (TSC2-deficient) (1.6 nM); 0.983 with UMB1949 (TSC2-deficient) (8 nM); 0.605 in the assay with UMB1949 (TSC2-deficient) (40 nM); 0.00543 with UMB1949 (TSC2-deficient) (200 nM); 0.00256 in the assay with UMB1949 (TSC2-deficient) (1000 nM); 0.00375 in the assay on UMB1949 (TSC2-deficient) (5000 nM).

Regarding `CN1CC[C@H](c2c(O)cc(O)c3c(=O)cc(-c4ccccc4Cl)oc23)[C@H](O)C1` [Flavopiridol hydrochloride], the relative viability in the assay with 621-102 (TSC2-deficient) [1] (0.0128 nM) is 0.701; in the assay on 621-102 (TSC2-deficient) [1] (0.064 nM), 0.787; in the assay on 621-102 (TSC2-deficient) [1] (0.32 nM), 0.805; in the assay on 621-102 (TSC2-deficient) [1] (1.6 nM) it was 0.875; in the assay on 621-102 (TSC2-deficient) [1] (8 nM) it was 0.747; with 621-102 (TSC2-deficient) [1] (40 nM), 0.227. Further, the relative viability is 0.009 in the assay with 621-102 (TSC2-deficient) [1] (200 nM); 0.0076 with 621-102 (TSC2-deficient) [1] (1000 nM); 0.0171 in the assay on 621-102 (TSC2-deficient) [1] (5000 nM); 0.977 in the assay with UMB1949 (TSC2-deficient) (0.0128 nM); 1 in the assay on UMB1949 (TSC2-deficient) (0.064 nM); 0.989 in the assay with UMB1949 (TSC2-deficient) (0.32 nM). The relative viability in the assay on UMB1949 (TSC2-deficient) (1.6 nM) is 1.04; in the assay on UMB1949 (TSC2-deficient) (8 nM), 1.15; in the assay on UMB1949 (TSC2-deficient) (40 nM), 0.855; with UMB1949 (TSC2-deficient) (200 nM), 0.00837; in the assay with UMB1949 (TSC2-deficient) (1000 nM) it was 0.00534; in the assay on UMB1949 (TSC2-deficient) (5000 nM), 0.00482.

Turning to `CN1CC[C@H](c2c(O)cc(O)c3c(=O)cc(-c4ccccc4Cl)oc23)[C@H](O)C1` [Flavopiridol(Alvocidib)], the relative viability came out at 1.14 with 621-102 (TSC2-deficient) [1] (0.0128 nM); 1.2 in the assay on 621-102 (TSC2-deficient) [1] (0.064 nM); 1.24 in the assay on 621-102 (TSC2-deficient) [1] (0.32 nM); 1.15 in the assay on 621-102 (TSC2-deficient) [1] (1.6 nM); 0.972 with 621-102 (TSC2-deficient) [1] (8 nM); 0.212 with 621-102 (TSC2-deficient) [1] (40 nM). Further, the relative viability in the assay on 621-102 (TSC2-deficient) [1] (200 nM) was 0.00428; with 621-102 (TSC2-deficient) [1] (1000 nM), 0.00239; in the assay with 621-102 (TSC2-deficient) [1] (5000 nM), 0.00377; with UMB1949 (TSC2-deficient) (0.0128 nM) it was 1.12; in the assay with UMB1949 (TSC2-deficient) (0.064 nM) it was 1.16; in the assay on UMB1949 (TSC2-deficient) (0.32 nM), 1.04. The relative viability in the assay on UMB1949 (TSC2-deficient) (1.6 nM) came out at 1.21; in the assay with UMB1949 (TSC2-deficient) (8 nM) it was 1.08; in the assay on UMB1949 (TSC2-deficient) (40 nM), 0.923; with UMB1949 (TSC2-deficient) (200 nM), 0.00682; in the assay on UMB1949 (TSC2-deficient) (1000 nM), 0.00291; in the assay on UMB1949 (TSC2-deficient) (5000 nM), 0.00348.

As for `COC1=C2C[C@@H](C)C[C@H](OC)[C@H](O)[C@@H](C)/C=C(\C)[C@H](OC(N)=O)[C@@H](OC)/C=C\C=C(/C)C(=O)NC(=CC1=O)C2=O` [Geldanamycin], the relative viability with 621-102 (TSC2-deficient) [2] (0.0001 µM) stood at 90.7 ± 2.4%; in the assay on 621-102 (TSC2-deficient) [2] (0.001 µM), 91.7 ± 1.6%; in the assay with 621-102 (TSC2-deficient) [2] (0.01 µM), 62.3 ± 3%; with 621-102 (TSC2-deficient) [2] (0.1 µM) it was 39.82 ± 0.13%; with 621-102 (TSC2-deficient) [2] (1 µM) it was 28.8 ± 1.5%; in the assay on 621-102 (TSC2-deficient) [2] (10 µM), 8.32 ± 0.19%. Besides, the relative viability with 621-103 (TSC2-rescued) (0.0001 µM) was 98.8 ± 6.2%; with 621-103 (TSC2-rescued) (0.001 µM) it was 77.8 ± 1.1%; in the assay with 621-103 (TSC2-rescued) (0.01 µM), 33.3 ± 7.4%; in the assay on 621-103 (TSC2-rescued) (0.1 µM), 10.09 ± 0.062%; in the assay on 621-103 (TSC2-rescued) (1 µM) it was 3.46 ± 0.37%; with 621-103 (TSC2-rescued) (10 µM), 3.05 ± 0.2%. The relative viability in the assay on 621-102 (TSC2-deficient) [1] (0.0128 nM) was determined as 0.476; with 621-102 (TSC2-deficient) [1] (0.064 nM), 0.259; in the assay with 621-102 (TSC2-deficient) [1] (0.32 nM) it was 0.399; in the assay with 621-102 (TSC2-deficient) [1] (1.6 nM), 0.172; in the assay with 621-102 (TSC2-deficient) [1] (8 nM) it was 0.306; with 621-102 (TSC2-deficient) [1] (40 nM), 0.27. Further, the relative viability was found to be 0.12 in the assay with 621-102 (TSC2-deficient) [1] (200 nM), 0.0204 in the assay on 621-102 (TSC2-deficient) [1] (1000 nM) and 0.0125 in the assay on 621-102 (TSC2-deficient) [1] (5000 nM).
